Reference: patent publication US20230365592A1 (Agios Pharmaceuticals, Inc., priority 2022, published 2023)

Molecular target: T1, human PAH with the R408W mutation (Homo sapiens, UniProt P00439, R408W)
T1 construct: expressed in transfected cells
T1 sequence (P00439 1-452 R408W): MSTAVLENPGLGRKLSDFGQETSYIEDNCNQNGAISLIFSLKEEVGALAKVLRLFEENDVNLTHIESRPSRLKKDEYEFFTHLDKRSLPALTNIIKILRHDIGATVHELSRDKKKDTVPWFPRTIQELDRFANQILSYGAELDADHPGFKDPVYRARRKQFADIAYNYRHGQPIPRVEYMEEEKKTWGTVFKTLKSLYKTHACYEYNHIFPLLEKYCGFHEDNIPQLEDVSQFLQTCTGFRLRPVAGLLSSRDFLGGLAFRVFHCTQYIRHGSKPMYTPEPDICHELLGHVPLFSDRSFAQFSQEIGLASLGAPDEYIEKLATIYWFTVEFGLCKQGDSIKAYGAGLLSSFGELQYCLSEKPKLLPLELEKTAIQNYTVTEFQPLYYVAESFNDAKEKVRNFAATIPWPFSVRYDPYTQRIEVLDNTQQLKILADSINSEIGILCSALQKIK
Experiment: Cell Based Phenylalanine Flux Assay;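 note: after compound treatment, cells received sepiapterin plus isotope-labelled Phenylalanine for 4 hours, then labelled Tyrosine in the medium was quantified, 10-point 2-fold dilution series run in duplicate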
Conditions: A375 cells expressing R408W PAH; 24 hrs with compound, then 20 µM sepiapterin and 800 µM 13C9,15N-Phenylalanine for 4 hours; 13C-Tyrosine by LC-MS; average where tested multiple times; read-out: AC50

Which AC50 does the source give for `FC(F)c1cccc2cc(C3c4nc[nH]c4CCN3c3nnc(C4CCC4)o3)nn12` (stereo not drawn) here?
Its AC50 is 1000 to 5000 nM.

`Cc1cccn2nc(C3c4nc[nH]c4CCN3c3nnc(N4CCOCC4)o3)cc12` (stereo not drawn) was tested. Which AC50 did it give?
Its AC50 is 1000 to 5000 nM.

How did the AC50 turn out when `Cc1cccc2cc(C3c4nc[nH]c4CCN3C(=O)c3cnco3)nn12` (stereo not drawn) was run?
The AC50 was 1000 to 5000 nM.

Same assay, conditions: A375 cells expressing human PAH R408W; 24 hrs compound incubation; 13C-Tyrosine by LC-MS; average where tested multiple times; read-out: AC50

How did the AC50 turn out when `COc1cccn2nc([C@@H]3c4nc[nH]c4CCN3c3ncc(C(F)(F)F)cn3)cc12` [Example 2200, (S)-4-(4-methoxypyrazolo[1,5-a]pyridin-2-yl)-5-(5-(trifluoromethyl)pyrimidin-2-yl)-4,5,6,7-tetrahydro-1H-imidazo[4,5-c]pyridine] was run?
The AC50 was under 500 nM.

For `c1cc(C2CC2)c2cc([C@H]3c4nc[nH]c4CCN3c3cnccn3)nn2c1` [Example 2224, (R)-4-(4-cyclopropylpyrazolo[1,5-a]pyridin-2-yl)-5-(pyrazin-2-yl)-4,5,6,7-tetrahydro-1H-imidazo[4,5-c]pyridine], which AC50 is on record?
The AC50 was 1000 to 5000 nM.

With `FC(F)(F)Oc1cccn2nc([C@@H]3c4nc[nH]c4CCN3c3nnc(C(F)(F)F)o3)cc12` [Example 2253, (S)-2-(4-(4-(trifluoromethoxy)pyrazolo[1,5-a]pyridin-2-yl)-1,4,6,7-tetrahydro-5H-imidazo[4,5-c]pyridin-5-yl)-5-(trifluoromethyl)-1,3,4-oxadiazole] as the compound, how does the AC50 read?
Its AC50 is under 500 nM.

For `Cc1cccc(-c2nnc(N3CCc4[nH]cnc4[C@H]3c3cc4c(C5CC5)cccn4n3)o2)n1` [Example 2359, (S)-2-(4-(4-cyclopropylpyrazolo[1,5-a]pyridin-2-yl)-1,4,6,7-tetrahydro-5H-imidazo[4,5-c]pyridin-5-yl)-5-(6-methylpyridin-2-yl)-1,3,4-oxadiazole], which AC50 is on record?
The AC50 was 500 to 1000 nM.

`Cn1ccc(-c2nnc(C(=O)N3CCc4[nH]cnc4[C@@H]3c3cc4ccccn4n3)s2)n1` [Example 2017, (R)-(5-(1-methyl-1H-pyrazol-3-yl)-1,3,4-thiadiazol-2-yl)(4-(pyrazolo[1,5-a]pyridin-2-yl)-1,4,6,7-tetrahydro-5H-imidazo[4,5-c]pyridin-5-yl)methanone] was tested. Which AC50 did it give?
The AC50 was over 5000 nM.

Which AC50 does the source give for `Cc1cccn2nc([C@H]3c4nc[nH]c4CCN3C(=O)c3ocnc3C3CC3)cc12` [Example 1945, (R)-(4-cyclopropyloxazol-5-yl)(4-(4-methylpyrazolo[1,5-a]pyridin-2-yl)-1,4,6,7-tetrahydro-5H-imidazo[4,5-c]pyridin-5-yl)methanone] here?
The AC50 was 1000 to 5000 nM.

`CN(C)c1ccc2c(C(=O)N3CCc4[nH]cnc4[C@H]3c3cc4cccc(Cl)n4n3)cnn2c1` [Example 2474, (S)-(4-(7-chloropyrazolo[1,5-a]pyridin-2-yl)-6,7-dihydro-1H-imidazo[4,5-c]pyridin-5(4H)-yl)(6-(dimethylamino)pyrazolo[1,5-a]pyridin-3-yl)methanone] was tested. Which AC50 did it give?
The AC50 was 1000 to 5000 nM.

With `FC(F)(F)c1nnc(N2CCc3[nH]cnc3[C@H]2c2cc3cccc(C(F)(F)F)n3n2)o1` [Example 2491, (S)-2-(trifluoromethyl)-5-(4-(7-(trifluoromethyl)pyrazolo[1,5-a]pyridin-2-yl)-1,4,6,7-tetrahydro-5H-imidazo[4,5-c]pyridin-5-yl)-1,3,4-oxadiazole] as the compound, how does the AC50 read?
Its AC50 is 1000 to 5000 nM.

Which AC50 does the source give for `Cn1cc(-c2nnc(C(=O)N3CCc4[nH]cnc4[C@H]3c3cc4c(OC(F)F)cccn4n3)o2)cn1` [Example 2445, (S)-(4-(4-(difluoromethoxy)pyrazolo[1,5-a]pyridin-2-yl)-6,7-dihydro-1H-imidazo[4,5-c]pyridin-5(4H)-yl)(5-(1-methyl-1H-pyrazol-4-yl)-1,3,4-oxadiazol-2-yl)methanone] here?
The AC50 was 1000 to 5000 nM.

Same assay, conditions: A375 cells expressing human R408W PAH; 24 hrs compound incubation; 13C-Tyrosine by LC-MS; average where tested multiple times; read-out: AC50

`CC(C)(F)c1nc(C(F)F)c(C(=O)N2CCc3[nH]cnc3[C@@H]2c2cc3c(Cl)cccn3n2)o1` [Example 1229, (R)-(4-(4-chloropyrazolo[1,5-a]pyridin-2-yl)-6,7-dihydro-1H-imidazo[4,5-c]pyridin-5(4H)-yl)(4-(difluoromethyl)-2-(2-fluoropropan-2-yl)oxazol-5-yl)methanone] was tested. Which AC50 did it give?
The AC50 was 500 to 1000 nM.

How did the AC50 turn out when `Cn1nc(Cl)nc1C(=O)N1CCc2[nH]cnc2[C@@H]1c1cc2c(F)cccn2n1` [Example 763, (R)-(3-chloro-1-methyl-1H-1,2,4-triazol-5-yl)(4-(4-fluoropyrazolo[1,5-a]pyridin-2-yl)-6,7-dihydro-1H-imidazo[4,5-c]pyridin-5(4H)-yl)methanone] was run?
Its AC50 is 1000 to 5000 nM.

How did the AC50 turn out when `O=C(c1nnc(-c2cnn(S(=O)(=O)C3CC3)c2)o1)N1CCc2[nH]cnc2[C@H]1c1cc2c(F)cccn2n1` [Example 834, (S)-(5-(1-(cyclopropylsulfonyl)-1H-pyrazol-4-yl)-1,3,4-oxadiazol-2-yl)(4-(4-fluoropyrazolo[1,5-a]pyridin-2-yl)-6,7-dihydro-1H-imidazo[4,5-c]pyridin-5(4H)-yl)methanone] was run?
Its AC50 is 500 to 1000 nM.

How did the AC50 turn out when `O=C(c1oc(C2(O)CC2)nc1C(F)F)N1CCc2[nH]cnc2[C@H]1c1cc2c(C(F)(F)F)cccn2n1` [Example 1222, (S)-(4-(difluoromethyl)-2-(1-hydroxycyclopropyl)oxazol-5-yl)(4-(4-(trifluoromethyl)pyrazolo[1,5-a]pyridin-2-yl)-6,7-dihydro-1H-imidazo[4,5-c]pyridin-5(4H)-yl)methanone] was run?
Its AC50 is under 500 nM.

Which AC50 does the source give for `CC(C)(C)c1nnc(C(=O)N2CCc3[nH]cnc3[C@@H]2c2cc3cccc(Cl)n3n2)o1` [Example 1122, (R)-(5-(tert-butyl)-1,3,4-oxadiazol-2-yl)(4-(7-chloropyrazolo[1,5-a]pyridin-2-yl)-6,7-dihydro-1H-imidazo[4,5-c]pyridin-5(4H)-yl)methanone] here?
Its AC50 is 1000 to 5000 nM.

How did the AC50 turn out when `Cc1cccn2nc([C@@H]3c4nc[nH]c4CCN3C(=O)c3nnc(-c4cnn(S(=O)(=O)C5CC5)c4)o3)cc12` [Example 852, (S)-(5-(1-(cyclopropylsulfonyl)-1H-pyrazol-4-yl)-1,3,4-oxadiazol-2-yl)(4-(4-methylpyrazolo[1,5-a]pyridin-2-yl)-6,7-dihydro-1H-imidazo[4,5-c]pyridin-5(4H)-yl)methanone] was run?
The AC50 was 500 to 1000 nM.

How did the AC50 turn out when `Cn1ccc(-c2ccc3c(C(=O)N4CCc5[nH]cnc5[C@@H]4c4cc5c(C(F)(F)F)cccn5n4)cnn3c2)n1` [Example 1597, (R)-(6-(1-methyl-1H-pyrazol-3-yl)pyrazolo[1,5-a)pyridin-3-yl)(4-(4-(trifluoromethyl)pyrazolo[1,5-a]pyridin-2-yl)-6,7-dihydro-1H-imidazo[4,5-c]pyridin-5(4H)-yl)methanone] was run?
The AC50 was over 5000 nM.

Which AC50 does the source give for `Cc1nc(C(C)(C)O)oc1C(=O)N1CCc2[nH]cnc2[C@H]1c1cc2c(Cl)cccn2n1` [Example 724, (S)-(4-(4-chloropyrazolo[1,5-a]pyridin-2-yl)-6,7-dihydro-1H-imidazo[4,5-c]pyridin-5(4H)-yl)(2-(2-hydroxypropan-2-yl)-4-methyloxazol-5-yl)methanone] here?
Its AC50 is under 500 nM.

How did the AC50 turn out when `O=C(c1ccnn1C(F)F)N1CCc2[nH]cnc2[C@H]1c1cc2ccc(F)cn2n1` [Example 1088, (S)-(1-(difluoromethyl)-1H-pyrazol-5-yl)(4-(6-fluoropyrazolo[1,5-a]pyridin-2-yl)-6,7-dihydro-1H-imidazo[4,5-c]pyridin-5(4H)-yl)methanone] was run?
Its AC50 is 500 to 1000 nM.

With `O=C(c1ccnn1C(F)F)N1CCc2[nH]cnc2[C@@H]1c1cc2cc(F)ccn2n1` [Example 1093, (R)-(1-(difluoromethyl)-1H-pyrazol-5-yl)(4-(5-fluoropyrazolo[1,5-a]pyridin-2-yl)-6,7-dihydro-1H-imidazo[4,5-c]pyridin-5(4H)-yl)methanone] as the compound, how does the AC50 read?
Its AC50 is 1000 to 5000 nM.

Which AC50 does the source give for `O=C(c1nnc(-c2ccn(C(F)F)n2)o1)N1CCc2[nH]cnc2[C@H]1c1cc2c(OC(F)F)cccn2n1` [Example 1662, (S)-(4-(4-(difluoromethoxy)pyrazolo[1,5-a]pyridin-2-yl)-6,7-dihydro-1H-imidazo[4,5-c]pyridin-5(4H)-yl)(5-(1-(difluoromethyl)-1H-pyrazol-3-yl)-1,3,4-oxadiazol-2-yl)methanone] here?
Its AC50 is 500 to 1000 nM.

For `Cc1cccc(-c2nnc(C(=O)N3CCc4[nH]cnc4[C@@H]3c3cc4ccccn4n3)o2)n1` [Example 1383, (R)-(5-(6-methylpyridin-2-yl)-1,3,4-oxadiazol-2-yl)(4-(pyrazolo[1,5-a]pyridin-2-yl)-6,7-dihydro-1H-imidazo[4,5-c]pyridin-5(4H)-yl)methanone], which AC50 is on record?
The AC50 was over 5000 nM.

With `O=C(c1nnc(-c2cccnc2)o1)N1CCc2[nH]cnc2[C@H]1c1cc2c(Cl)cccn2n1` [Example 1292, (S)-(4-(4-chloropyrazolo[1,5-a]pyridin-2-yl)-6,7-dihydro-1H-imidazo[4,5-c]pyridin-5(4H)-yl)(5-(pyridin-3-yl)-1,3,4-oxadiazol-2-yl)methanone] as the compound, how does the AC50 read?
The AC50 was under 500 nM.

How did the AC50 turn out when `CC(C)(O)c1nc(Cl)c(C(=O)N2CCc3[nH]cnc3[C@H]2c2cc3c(Cl)cccn3n2)o1` [Example 720, (S)-(4-chloro-2-(2-hydroxypropan-2-yl)oxazol-5-yl)(4-(4-chloropyrazolo[1,5-a]pyridin-2-yl)-6,7-dihydro-1H-imidazo[4,5-c]pyridin-5(4H)-yl)methanone] was run?
Its AC50 is under 500 nM.

`FC(F)(F)c1cccn2nc([C@@H]3c4nc[nH]c4CCN3c3nnc(-c4ccccn4)o3)cc12` [Example 1610, (S)-2-(pyridin-2-yl)-5-(4-(4-(trifluoromethyl)pyrazolo[1,5-a]pyridin-2-yl)-6,7-dihydro-1H-imidazo[4,5-c]pyridin-5(4H)-yl)-1,3,4-oxadiazole] was tested. Which AC50 did it give?
Its AC50 is 500 to 1000 nM.
